Measured values: patent publication EP0354714A2, “Pharmaceutical compositions containing polyaromatic compounds” (HADASSAH MEDICAL ORGANIZATION, priority 1988, dated 1990)

Columns and labels:
[1] = molecular target: T1, ESb mouse lymphoma heparanase (Mus musculus, UniProt Q6YGZ1); experiment: Inhibition of heparanase degradation of 35S-labelled ECM; type: biochemical; conditions: 10 µgr/ml, 24 hours; for Total low-mol-wt. HS fragments released by heparanase (cpm): control 17,756 cpm
T1 construct: endogenous in cells; host or cells: ESb mouse lymphoma cells
T1 sequence (Q6YGZ1 150-535 limits assumed): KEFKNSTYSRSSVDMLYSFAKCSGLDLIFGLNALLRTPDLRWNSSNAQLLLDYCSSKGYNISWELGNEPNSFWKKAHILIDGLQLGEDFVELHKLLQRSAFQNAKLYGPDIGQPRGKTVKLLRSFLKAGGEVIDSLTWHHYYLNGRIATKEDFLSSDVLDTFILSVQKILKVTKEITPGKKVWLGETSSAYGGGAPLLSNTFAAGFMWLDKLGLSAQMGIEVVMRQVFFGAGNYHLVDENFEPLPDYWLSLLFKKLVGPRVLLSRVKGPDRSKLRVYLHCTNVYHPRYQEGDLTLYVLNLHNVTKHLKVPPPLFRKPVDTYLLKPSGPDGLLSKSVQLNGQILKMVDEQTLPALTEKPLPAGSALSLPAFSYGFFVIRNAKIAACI
T1 sequence (Q6YGZ1 28-101 limits assumed): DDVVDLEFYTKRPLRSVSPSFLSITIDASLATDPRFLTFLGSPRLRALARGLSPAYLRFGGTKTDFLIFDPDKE
Experimental: The ability of several of the above mentioned compounds to inhibit lymphoma-cell derived heparanse was tested in the assay system described by Vlodavsky et al. (Cancer Research. 43: 2704-2711 (1983). ³⁵S labled ECM was incubated for 24 hours with ESb mouse lymphoma heparanase in the presence of 10 ugr ml of the indicated compounds. Degradation of the sulfated glycosaminoglycan was followed by gel filtration of the supernatants. Heparanase activity is expressed as the total amount of labled low-molecular-weight fragments released from the ECM substrate. The results are summarized in Table III. Table III

[2] = PTT in rats after oral administration; type: in vivo; conditions: 1 ml of 10%-20% solution, after 2-4 hours, around 20 sec. at time 0
Excerpt: Moreover, since aluminon can be absorbed through the gastrointestinal tract, it can be used as an orally administratable anticoagulant (as opposed to heparin which has to be given by injection).

[3] = system: Bovine aortal smooth-muscle cells; experiment: 3H thymidine incorporation in smooth muscle cells (resting, FGF- or thrombin-stimulated); type: cell-based; conditions: for H³ thymidine incorporation per well (cpm. mean of duplicates) +FGF: FGF 250 ngr/ml, without aluminon 22,574; for H³ thymidine incorporation per well (cpm. mean of duplicates) +FGF / H³ thymidine incorporation per well (cpm. mean of duplicates) Control / H³ thymidine incorporation per well (cpm. mean of duplicates) +Thrombin: 2 days; for H³ thymidine incorporation per well (cpm. mean of duplicates) Control: resting cells, without aluminon 9.823; for H³ thymidine incorporation per well (cpm. mean of duplicates) +Thrombin: thrombin 10⁻⁶M, without aluminon 54,000
Experimental: Bovine aortal smooth-muscle cells were grown in tissue culture plates in the presence of glucose-rich medium (H-21). The cultures (around 35x10³ cells/well in 24 wells' plates) were initially supplemented with 10% fetal calf serum (FCS) for 2-3 days. The cell nutrition was then replaced by a serum-deprived medium (H-21 plus 0.2% FCS) in order to test the effect of defined growth factors on the proliferation of smooth-muscle cells and their possible inhibition by the compounds with heparin-like activity.
In the following representative experiment, the cells transferred to the serum-deprived medium were grown in the presence of thrombin (10⁻⁶M) or FGF (partially purified from bovine brain, 250 ngr/ml). Various concentrations of aluminon were added to the thrombin or FGF-treated cells and to non-treated control cultures. ³H thymidine was also added to all wells for an incubation period of 2 days. The cultures were then harvested and the ³H thymidine incorporated into DNA was measured.

[4] = system: normal pooled plasma; experiment: Activated partial thromboplastin time (APTT) in normal pooled plasma; type: biochemical; conditions: Concentration 0.2 mg/mL; normal pooled plasma alone 25 - 28 sec.
Experimental: Measurement of Activated Partial Thromboplastin Time (APTT)
Utilizing the following procedure, the activated partial thromboplastin time (APTT) was measured for each of comparative compounds A-D:
To an assay cuvette was added 100 ul of normal pooled plasma (George King Biomedical Inc., Kansas) and 100 ul of a solution containing one of the above compounds in aqueous 50 mM Tris hydrochloride at pH 7.5 (0.2 mg of sample in one mL buffer). The sample was placed in a MLA coagulation timer which automatically maintained the sample at 37°C for 2.5 minutes, injected 100 ul of actin activated cephaloplastin reagent, kept 5 minutes, injected 100 ul of 3 mM CaCl, and the clot formation was determined photometrically and the time recorded.

[5] = Minimum concentration that significantly prolongs APTT versus standard buffer solution; type: biochemical; conditions: concentration at which the polymeric components of the dye significantly prolonged APTT versus standard buffer solution
[6] = molecular target: T2, lipoprotein lipase (LPL) (Rattus norvegicus, UniProt Q06000); experiment: LPL activity in cultured heart cells and their medium after 24 hrs incubation; type: cell-based; conditions: heart cells; for LPL activity: Total: control 3237; for LPL activity: Medium / LPL activity: Cells: mean±SEM of triplicates; for LPL activity: Medium: control 817±14; for LPL activity: Cells: control 2420±93
T2 construct: endogenous in cells; host or cells: F1 heart cell cultures from newborn rat hearts (mainly non-beating mesenchymal cells)
T2 sequence (Q06000 28-474): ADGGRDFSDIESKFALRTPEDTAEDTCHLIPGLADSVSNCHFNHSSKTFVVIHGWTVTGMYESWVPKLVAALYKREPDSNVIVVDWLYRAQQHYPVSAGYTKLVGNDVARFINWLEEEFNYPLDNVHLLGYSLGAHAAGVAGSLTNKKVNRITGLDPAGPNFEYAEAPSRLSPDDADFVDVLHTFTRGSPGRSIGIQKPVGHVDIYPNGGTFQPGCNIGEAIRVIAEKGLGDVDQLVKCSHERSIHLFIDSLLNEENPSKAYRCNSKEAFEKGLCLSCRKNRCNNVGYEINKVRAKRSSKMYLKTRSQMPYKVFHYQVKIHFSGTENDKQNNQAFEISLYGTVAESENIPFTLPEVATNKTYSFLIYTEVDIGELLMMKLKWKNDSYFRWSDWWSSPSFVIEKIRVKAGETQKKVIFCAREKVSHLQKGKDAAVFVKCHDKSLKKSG
Experimental: The enzyme LPL participate in the process of lipid transfer from the bloodstream to the tissues, LPL is bound to the external surface of cells via its association with cell-membrane glycosaminoglycans. Cultured heart cells is a powerful system in the study of the enzyme turn-over and the exploration of ways to manipulate its level since these cells are active in the biosynthesis of LPL, in addition to the surface binding of the enzyme.
F₁ heart cell cultures were prepared from newborn rat hearts as previously described (Chajek, T. et al., Biochem. Biophys. Acta 528, 456-474 (1978)). They consisted mainly of non-beating mesenchymal cells and were used 8-12 days after their isolation.
The enzyme activity was determined on aliquots of medium and of homogenates of cells which had been released from the petri dish with a rubber policeman in 1 ml of 0.025 M NH₃/NH₄Cl buffer (pH 8.1) containing 1 unit/ml of heparin. The assay system consisted of 0.1 ml of medium or 0.1 ml of cell homogenate ([…]) and 0.1 ml of substrate containing labeled triolein, prepared according to the method of Nilsson-Ehle and Schotz, (J. Lipid Res. 17, 536-541 (1976)). Incubations were carried out at 37°C for 45 min. The reaction was stopped by the addition of methanol/chloroform/heptane (1.4:1.25:1.v/v) and the extraction of fatty acids was performed according to the method of Belfrage and Vaughan (J. Lipid Res. 10, 341-344 (1969), as modified by Nilsson-Ehle and Schotz. Enzyme activity was calculated according to the formula of Nilsson-Ehle and Schotz.

With `O=C(O)C1=CC(=C(c2ccc(O)c(C(=O)O)c2)c2ccc(O)c(C(=O)O)c2)C=CC1=O` [Aluminon, aurintricarboxylic acid] the “% Inhibition” value [1] was 78%, the PTT [2] was greater than 200 s and the “H³ thymidine incorporation per well (cpm. mean of duplicates) +FGF” value ([3]; Aluminon 0.2 µgr/ml) was 22,256 cpm. The “H³ thymidine incorporation per well (cpm. mean of duplicates) Control” value ([3]; Aluminon 0.2 µgr/ml) was 8,425 cpm, the “H³ thymidine incorporation per well (cpm. mean of duplicates) +Thrombin” value ([3]; Aluminon 0.2 µgr/ml) was 46,857 cpm and the “H³ thymidine incorporation per well (cpm. mean of duplicates) +FGF” value ([3]; Aluminon 2 µgr/ml) was 13,089 cpm. The “H³ thymidine incorporation per well (cpm. mean of duplicates) Control” value ([3]; Aluminon 2 µgr/ml) was 5,120 cpm, the “H³ thymidine incorporation per well (cpm. mean of duplicates) +Thrombin” value ([3]; Aluminon 2 µgr/ml) was 14,064 cpm and the “H³ thymidine incorporation per well (cpm. mean of duplicates) +FGF” value ([3]; Aluminon 10 µgr/ml) was 6,846 cpm. For the same compound, the “H³ thymidine incorporation per well (cpm. mean of duplicates) Control” value ([3]; Aluminon 10 µgr/ml) was 4,105 cpm, the “H³ thymidine incorporation per well (cpm. mean of duplicates) +Thrombin” value ([3]; Aluminon 10 µgr/ml) was 6,877 cpm and the “H³ thymidine incorporation per well (cpm. mean of duplicates) +FGF” value ([3]; Aluminon 20 µgr/ml) was 6,745 cpm. For the same compound, the “H³ thymidine incorporation per well (cpm. mean of duplicates) Control” value ([3]; Aluminon 20 µgr/ml) was 4,343 cpm, the “H³ thymidine incorporation per well (cpm. mean of duplicates) +Thrombin” value ([3]; Aluminon 20 µgr/ml) was 5,705 cpm and the inhibition ([3]; aluminon concentration of 2 µgr/ml (∼4x10⁻⁶M)) was “More than 40%”.

For `O=C(O)C1=CC(=C(c2ccc(O)c(C(=O)O)c2)c2ccc(O)c(C(=O)O)c2)C=CC1=O` [Comparative Compound C], the “APTT” value [4] was 28 s.

For `CN(C)c1ccc(C(=C2C=CC(=[N+](C)C)C=C2)c2ccc(N(C)C)cc2)cc1` [Crystal Violet], the “Minimum Final Concentration” value [5] was 8.3 µg/mL.

With `CCN(CC)c1ccc(C(=C2C=CC(=[N+](CC)CC)C=C2)c2ccc(N(CC)CC)cc2)cc1.[Cl-]` [Ethyl Violet] the “Minimum Final Concentration” value [5] was 50.0 µg/mL.

For `Cc1cc(-c2ccc(/N=N/c3ccc4c(S(=O)(=O)[O-])cc(S(=O)(=O)[O-])c(N)c4c3O)c(C)c2)ccc1/N=N/c1ccc2c(S(=O)(=O)[O-])cc(S(=O)(=O)[O-])c(N)c2c1O.[Na+].[Na+].[Na+].[Na+]` [Evan's Blue], the “% increase in the total” value ([6]; Evan's Blue 10⁻³ M) was “+139.4%”, the “LPL activity: Total” value ([6]; Evan's Blue 10⁻³ M) was 7749 m mole FFA/h/dish and the “LPL activity: Medium” value ([6]; Evan's Blue 10⁻³ M) was 6051±435 m mole FFA/h/dish. The “LPL activity: Cells” value ([6]; Evan's Blue 10⁻³ M) was 1698±184 m mole FFA/h/dish, the “% increase in the total” value ([6]; Evan's Blue 10⁻⁴ M) was “+61.6%” and the “LPL activity: Total” value ([6]; Evan's Blue 10⁻⁴ M) was 5230 m mole FFA/h/dish. For the same compound, the “LPL activity: Medium” value ([6]; Evan's Blue 10⁻⁴ M) was 2783±194 m mole FFA/h/dish, the “LPL activity: Cells” value ([6]; Evan's Blue 10⁻⁴ M) was 2447±48 m mole FFA/h/dish and the “% increase in the total” value ([6]; Evan's Blue 10⁻⁵ M) was “+32.5%”. The “LPL activity: Total” value ([6]; Evan's Blue 10⁻⁵ M) was 4288 m mole FFA/h/dish, the “LPL activity: Medium” value ([6]; Evan's Blue 10⁻⁵ M) was 1531±182 m mole FFA/h/dish and the “LPL activity: Cells” value ([6]; Evan's Blue 10⁻⁵ M) was 2757±114 m mole FFA/h/dish. For the same compound, the “% Inhibition” value [1] was 60% and the “Total low-mol-wt. HS fragments released by heparanase (cpm)” value (from here on “Total low-mol-wt. HS fragments released”) [1] was 6,986 cpm.

For `CCN(Cc1cccc(S(=O)(=O)O)c1)c1ccc(C(=C2C=CC(=[N+](CC)Cc3cccc(S(=O)(=O)O)c3)C=C2)c2ccc(O)cc2S(=O)(=O)[O-])cc1` [Fast Green], the “% Inhibition” value [1] was 32% and the “Total low-mol-wt. HS fragments released” value [1] was 12,139 cpm.

For `CN(C)c1ccc(C(=C2C=CC(=[N+](C)C)C=C2)c2ccccc2)cc1` [Malachite Green], the “Minimum Final Concentration” value [5] was 150.0 µg/mL.

With `O=S(=O)(O)c1ccc(N=C2C=CC(=C(c3ccc(Nc4ccc(S(=O)(=O)O)cc4)cc3)c3ccc(Nc4ccc(S(=O)(=O)O)cc4)cc3)C=C2)cc1` [Methyl Blue] the “% Inhibition” value [1] was 23%, the “Total low-mol-wt. HS fragments released” value [1] was 13,676 cpm and the “Minimum Final Concentration” value [5] was 100.0 µg/mL.

In the case of `CN(C)c1ccc(C(=C2C=CC(=[N+](C)C)C=C2)c2ccc([N+](C)(C)C)cc2)cc1.[Cl-].[Cl-]` [Methyl Green], the “Minimum Final Concentration” value [5] was 50.0 µg/mL.

For `Cc1cc(C(=C2C=CC(=N)C=C2)c2ccc(N)cc2)ccc1N` [Rosaniline Chloride], the “Minimum Final Concentration” value [5] was 12.5 µg/mL.

In the case of `Cc1cc2nc3cc(C)c(N)cc3[n+](-c3ccccc3)c2cc1N.[Cl-]` [Safranin O], the “Minimum Final Concentration” value [5] was 150.0 µg/mL.

In the case of Aniline Blue, the “Minimum Final Concentration” value [5] was 150.0 µg/mL.

For Basic Fuchsin, the “Minimum Final Concentration” value [5] was 50.0 µg/mL.

With Brilliant Cresyl Blue the “Minimum Final Concentration” value [5] was 150.0 µg/mL.

With Methyl Violet the “Minimum Final Concentration” value [5] was 75.0 µg/mL.
